Assay results: patent US20220281848A1, “PYRAZOLE-SUBSTITUTED PYRROLIDINONES AS HERBICIDES” (FMC Corporation, priority 2019, published 2022)

System: plants
Experiment: Test D pre-emergence, other plants of Tables D1 and D3
Assay type: in vivo
Conditions: pre-emergence, 100=total damage, 0=no damage
Experimental: A formulation containing 50 g/L of the test chemical was prepared by dissolving the active ingredient in a mixture of organic solvents and emulsifier, details of which are provided in the table. This formulation was then mixed with a small, variable amount of acetone to aid dissolution, before addition of a 0.2% v/v aqueous solution of an adjuvant, as the aqueous diluent, to form an aqueous spray solution which contains a predetermined concentration of the active ingredient.
This aqueous spray solution was then sprayed onto plants including maize and wheat that had been seed treated with a herbicide safener, after one day's cultivation (for pre-emergence) or after about 12 days' cultivation (for post-emergence). The plants were grown from seeds sown in standard soil, placed in a glasshouse under controlled conditions (at 24/18° C. or 20/16° C., day/night; 16 h light; 65% humidity). After spray application the plants were then grown in a glasshouse under the same conditions and watered twice daily. After 15 d for post-emergence and 20 DAA for pre-emergence the test was evaluated (100=total damage to plant; 0=no damage to plant).

For CN1CC(c2cc(C(F)(F)F)n(C)n2)C(C(=O)Nc2cccc(F)c2F)C1=O (racemic) [Compound 3], the “damage to plant, ALOMY” value (rate 15, 20 DAA) was 0, the “damage to plant, AVEFA” value (rate 15, 20 DAA) was 0 and the “damage to plant, BEAVA” value (rate 15, 20 DAA) was 0. For the same compound, the “damage to plant, BROTE” value (rate 15, 20 DAA) was 0, the “damage to plant, BRSNN” value (rate 15, 20 DAA) was 0 and the “damage to plant, CHEAL” value (rate 15, 20 DAA) was 0. For the same compound, the “damage to plant, GALAP” value (rate 15, 20 DAA) was 0, the “damage to plant, HORVW” value (rate 15, 20 DAA) was 0 and the “damage to plant, KCHSC” value (rate 15, 20 DAA) was 0. For the same compound, the “damage to plant, LOLPE” value (rate 15, 20 DAA) was 0, the “damage to plant, POAAN” value (rate 15, 20 DAA) was 0 and the “damage to plant, POLCO” value (rate 15, 20 DAA) was 0. For the same compound, the “damage to plant, SINAR” value (rate 15, 20 DAA) was 0, the “damage to plant, STEME” value (rate 15, 20 DAA) was 0 and the “damage to plant, VERPE” value (rate 15, 20 DAA) was 0. The “damage to plant, ALOMY” value (rate 30, 20 DAA) was 0, the “damage to plant, AVEFA” value (rate 30, 20 DAA) was 0 and the “damage to plant, BEAVA” value (rate 30, 20 DAA) was 0. The “damage to plant, BROTE” value (rate 30, 20 DAA) was 0, the “damage to plant, BRSNN” value (rate 30, 20 DAA) was 0 and the “damage to plant, CHEAL” value (rate 30, 20 DAA) was 0. The “damage to plant, GALAP” value (rate 30, 20 DAA) was 0, the “damage to plant, HORVW” value (rate 30, 20 DAA) was 0 and the “damage to plant, KCHSC” value (rate 30, 20 DAA) was 0. The “damage to plant, LOLPE” value (rate 30, 20 DAA) was 0, the “damage to plant, POAAN” value (rate 30, 20 DAA) was 20 and the “damage to plant, POLCO” value (rate 30, 20 DAA) was 0. The “damage to plant, SINAR” value (rate 30, 20 DAA) was 0, the “damage to plant, STEME” value (rate 30, 20 DAA) was 0 and the “damage to plant, VERPE” value (rate 30, 20 DAA) was 0. For the same compound, the “damage to plant, ALOMY” value (rate 60, 20 DAA) was 0, the “damage to plant, AVEFA” value (rate 60, 20 DAA) was 0 and the “damage to plant, BEAVA” value (rate 60, 20 DAA) was 0. For the same compound, the “damage to plant, BROTE” value (rate 60, 20 DAA) was 0, the “damage to plant, BRSNN” value (rate 60, 20 DAA) was 0 and the “damage to plant, CHEAL” value (rate 60, 20 DAA) was 0. The “damage to plant, GALAP” value (rate 60, 20 DAA) was 0, the “damage to plant, HORVW” value (rate 60, 20 DAA) was 0 and the “damage to plant, KCHSC” value (rate 60, 20 DAA) was 0. For the same compound, the “damage to plant, LOLPE” value (rate 60, 20 DAA) was 0, the “damage to plant, POAAN” value (rate 60, 20 DAA) was 20 and the “damage to plant, POLCO” value (rate 60, 20 DAA) was 0. For the same compound, the “damage to plant, SINAR” value (rate 60, 20 DAA) was 0, the “damage to plant, STEME” value (rate 60, 20 DAA) was 0 and the “damage to plant, VERPE” value (rate 60, 20 DAA) was 0. For the same compound, the “damage to plant, ALOMY” value (rate 130, 20 DAA) was 0, the “damage to plant, AVEFA” value (rate 130, 20 DAA) was 0 and the “damage to plant, BEAVA” value (rate 130, 20 DAA) was 0. The “damage to plant, BROTE” value (rate 130, 20 DAA) was 0, the “damage to plant, BRSNN” value (rate 130, 20 DAA) was 0 and the “damage to plant, CHEAL” value (rate 130, 20 DAA) was 0. The “damage to plant, GALAP” value (rate 130, 20 DAA) was 0, the “damage to plant, HORVW” value (rate 130, 20 DAA) was 0 and the “damage to plant, KCHSC” value (rate 130, 20 DAA) was 0. The “damage to plant, LOLPE” value (rate 130, 20 DAA) was 0, the “damage to plant, POAAN” value (rate 130, 20 DAA) was 40 and the “damage to plant, POLCO” value (rate 130, 20 DAA) was 0. For the same compound, the “damage to plant, SINAR” value (rate 130, 20 DAA) was 0, the “damage to plant, STEME” value (rate 130, 20 DAA) was 0 and the “damage to plant, VERPE” value (rate 130, 20 DAA) was 0. The “damage to plant, ALOMY” value (rate 250, 20 DAA) was 0, the “damage to plant, AVEFA” value (rate 250, 20 DAA) was 0 and the “damage to plant, BEAVA” value (rate 250, 20 DAA) was 0. For the same compound, the “damage to plant, BROTE” value (rate 250, 20 DAA) was 0, the “damage to plant, BRSNN” value (rate 250, 20 DAA) was 0 and the “damage to plant, CHEAL” value (rate 250, 20 DAA) was 0. The “damage to plant, GALAP” value (rate 250, 20 DAA) was 0, the “damage to plant, HORVW” value (rate 250, 20 DAA) was 0 and the “damage to plant, KCHSC” value (rate 250, 20 DAA) was 0. The “damage to plant, LOLPE” value (rate 250, 20 DAA) was 0, the “damage to plant, POAAN” value (rate 250, 20 DAA) was 50 and the “damage to plant, POLCO” value (rate 250, 20 DAA) was 0. The “damage to plant, SINAR” value (rate 250, 20 DAA) was 0, the “damage to plant, STEME” value (rate 250, 20 DAA) was 0 and the “damage to plant, VERPE” value (rate 250, 20 DAA) was 0. For the same compound, the “damage to plant, ALOMY” value (rate 500, 20 DAA) was 20, the “damage to plant, AVEFA” value (rate 500, 20 DAA) was 30 and the “damage to plant, BEAVA” value (rate 500, 20 DAA) was 0. For the same compound, the “damage to plant, BROTE” value (rate 500, 20 DAA) was 0, the “damage to plant, BRSNN” value (rate 500, 20 DAA) was 0 and the “damage to plant, CHEAL” value (rate 500, 20 DAA) was 0. The “damage to plant, GALAP” value (rate 500, 20 DAA) was 0, the “damage to plant, HORVW” value (rate 500, 20 DAA) was 20 and the “damage to plant, KCHSC” value (rate 500, 20 DAA) was 0. For the same compound, the “damage to plant, LOLPE” value (rate 500, 20 DAA) was 50, the “damage to plant, POAAN” value (rate 500, 20 DAA) was 60 and the “damage to plant, POLCO” value (rate 500, 20 DAA) was 0. For the same compound, the “damage to plant, SINAR” value (rate 500, 20 DAA) was 0, the “damage to plant, STEME” value (rate 500, 20 DAA) was 30 and the “damage to plant, VERPE” value (rate 500, 20 DAA) was 60.
